Data published in patent US7838674B2, “Tetracyclic lactame derivatives” (Novartis AG, priority 2007, dated 2010).
Where a name gives a salt, the structure may show the parent alone.

Molecular target: T1, MAPKAPK2 enzyme (HIS-MK2, Invitrogen PV4019) (Homo sapiens, UniProt P49137)
T1 construct: His; purchased Invitrogen PV4019
Assay: Alternative MAPKAPK2 assay (Caliper microfluidic mobility shift, HSP27-peptide)
Type: biochemical
Details: HIS-MK2 0.013 nM, ATP 10 μM, 60 min at 30° C.

T1 sequence (P49137 whole entry): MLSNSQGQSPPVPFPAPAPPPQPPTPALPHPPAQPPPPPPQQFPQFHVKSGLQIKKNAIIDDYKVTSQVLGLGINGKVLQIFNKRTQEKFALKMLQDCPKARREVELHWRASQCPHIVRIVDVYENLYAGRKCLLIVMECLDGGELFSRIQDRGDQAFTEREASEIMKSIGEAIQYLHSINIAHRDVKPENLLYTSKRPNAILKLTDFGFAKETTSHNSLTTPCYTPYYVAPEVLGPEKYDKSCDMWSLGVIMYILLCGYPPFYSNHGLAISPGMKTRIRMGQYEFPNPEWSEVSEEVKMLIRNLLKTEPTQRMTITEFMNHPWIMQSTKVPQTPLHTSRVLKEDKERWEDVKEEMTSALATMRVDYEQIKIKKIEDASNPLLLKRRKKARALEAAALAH

| IC50 [nM] | SMILES |
| --- | --- |
| 12 | Cc1ccc(-c2cc3c(cn2)CCc2c-3[nH]c3c2C(=O)NC2(CC2)C32CC2)cn1 [Example 193, 2-(1′-Amino-bicyclopropyl-1-yl)-8-(6-methyl-pyridin-3-yl)-4,5-dihydro-1H-pyrrolo[2,3-f]isoquinoline-3-carboxylic acid lactam] |
| 62 | Cc1cncc(-c2cc3c(cn2)CCc2c-3[nH]c3c2C(=O)NC2(CCC2)C3)c1 [Example 102, 2-(1-Amino-cyclobutylmethyl)-8-(5-methyl-pyridin-3-yl)-4,5-dihydro-1H-pyrrolo[2,3-f]isoquinoline-3-carboxylic acid lactam] |
| 16 | CC(C)(N)CCc1ccc(-c2cc3c(cn2)CCc2c-3[nH]c3c2C(=O)NCC32CC2)cc1 [Example 118, 8-[4-(3-Amino-3-methyl-butyl)-phenyl]-2-(1-aminomethyl-cyclopropyl)-4,5-dihydro-1H-pyrrolo[2,3-f]isoquinoline-3-carboxylic acid lactam] |
| 69 | COc1cc(OC)cc(-c2cc3c(cn2)CCc2c4c(n(C)c2-3)CC2(CNC2)NC4=O)c1 [Example 143, 2-(3-Amino-azetidin-3-ylmethyl)-8-(3,5-dimethoxy-phenyl)-1-methyl-4,5-dihydro-1H-pyrrolo[2,3-f]isoquinoline-3-carboxylic acid lactam hydrochloride] |
| > 10 | O=C1NC2(CC2)Cc2[nH]c3c(c21)CCc1cnc(Oc2ccc(F)cc2F)nc1-3 [Example 266, 2-(1-Amino-cyclopropylmethyl)-8-(2,4-difluoro-phenoxy)-4,5-dihydro-1H-1,7,9-triaza-cyclopenta[a]naphthalene-3-carboxylic acid lactam] |
| 58 | COc1ccc(-c2cc3c(cn2)CCc2c4c(n(C)c2-3)CC2(CNC2)NC4=O)cc1OC [Example 144, 2-3-Amino-azetidin-3-ylmethyl)-8-(3,4-dimethoxy-phenyl)-1-methyl-4,5-dihydro-1H-pyrrolo[2,3-f]isoquinoline-3-carboxylic acid lactam hydrochloride] |
| 16 | O=C1NCC2(CC2)c2[nH]c3c(c21)CCc1cnc(-c2cccnc2)cc1-3 [Example 125, 2-(1-Aminomethyl-cyclopropyl)-8-pyridin-3-yl-4,5-dihydro-1H-pyrrolo[2,3-f]isoquinoline-3-carboxylic acid lactam] |
| 29 | CN1CCN(c2ccc(-c3cc4c(cn3)CCc3c-4[nH]c4c3C(=O)NC3(CC3)C43CC3)cc2)CC1 [Example 221, 2-(1′-Amino-bicyclopropyl-1-yl)-8-[4-(4-methyl-piperazin-1-yl)-phenyl]-4,5-dihydro-1H-pyrrolo[2,3-f]isoquinoline-3-carboxylic acid lactam] |
| 18 | Cn1c2c(c3c1-c1nc(-c4ccc(Br)cc4)ncc1CC3)C(=O)NC1(CNC1)C2 [Example 139, 2-(3-Amino-azetidin-3-ylmethyl)-8-(4-bromo-phenyl)-1-methyl-4,5-dihydro-1H-1,7,9-triaza-cyclopenta[a]naphthalene-3-carboxylic acid lactam hydrochloride] |
| 98 | Nc1ccc(-c2cc3c(cn2)CCc2c-3[nH]c3c2C(=O)NC2(CCC2)C3)cn1 [Example 101, 2-(1-Amino-cyclobutylmethyl)-8-(6-amino-pyridin-3-yl)-4,5-dihydro-1H-pyrrolo[2,3-f]isoquinoline-3-carboxylic acid lactam] |
| 6 | O=C1NCC2(CNC2)c2[nH]c3c(c21)CCc1cnc(-c2ccc(N4CCOCC4)nc2)nc1-3 [Example 329, 2-(3-Aminomethyl-azetidin-3-yl)-8-(6-morpholin-4-yl-pyridin-3-yl)-4,5-dihydro-1H-1,7,9-triaza-cyclopenta[a]naphthalene-3-carboxylic acid lactam] |
| 28 | O=C1NC2CCC2c2[nH]c3c(c21)CCc1cnc(-c2cccc(F)c2)cc1-3 (single isomer, unassigned; (+)) [Example 51, (+)-2-(2-Amino-cyclobutyl)-8-(3-fluoro-phenyl)-4,5-dihydro-1H-pyrrolo[2,3-f]isoquinoline-3-carboxylic acid lactam] |
| 7 | CN1CC2(CNC(=O)c3c4c(n(C)c32)-c2cc(-c3cccc(Cl)c3)ncc2CC4)C1 [Example 190, 2-[3-Aminomethyl-1-methyl-azetidin-3-yl]-8-(3-chloro-phenyl)-1-methyl-4,5-dihydro-1H-pyrrolo[2,3-f]isoquinoline-3-carboxylic acid lactam] |
| 23 | Cn1c2c(c3c1-c1cc(-c4cncc(-c5ccc(F)cc5)c4)ncc1CC3)C(=O)NC1(CNC1)C2 [Example 136, 2-(3-Amino-azetidin-3-ylmethyl)-8-[5-(4-fluoro-phenyl)-pyridin-3-yl]-1-methyl-4,5-dihydro-1H-pyrrolo[2,3-f]isoquinoline-3-carboxylic acid lactam hydrochloride] |
| 72 | O=C1NC2(CCC2)Cc2[nH]c3c(c21)CCc1cnc(-c2ccc(OCCN4CCOCC4)cc2)cc1-3 [Example 231, 2-(1-Amino-cyclobutylmethyl)-8-[4-(2-morpholin-4-yl-ethoxy)-phenyl]-4,5-dihydro-1H-pyrrolo[2,3-f]isoquinoline-3-carboxylic acid lactam] |
| < 3 | COc1ccc(-c2cc3c(cn2)CCc2c-3[nH]c3c2C(=O)NC2(CC2)C32CN(C)C2)cn1 [Example 255, 2-[3-(1-Amino-cyclopropyl)-1-methyl-azetidin-3-yl]-8-(6-methoxy-pyridin-3-yl)-4,5-dihydro-1H-pyrrolo[2,3-f]isoquinoline-3-carboxylic acid lactam] |
| < 3 | CN1CC2(C1)c1[nH]c3c(c1C(=O)NC21CC1)CCc1cnc(-c2ccc(F)nc2)cc1-3 [Example 223, 2-[3-(1-Amino-cyclopropyl)-1-methyl-azetidin-3-yl]-8-(6-fluoro-pyridin-3-yl)-4,5-dihydro-1H-pyrrolo[2,3-f]isoquinoline-3-carboxylic acid lactam] |
| < 3 | COc1ccc(-c2cc3c(cn2)CCc2c-3[nH]c3c2C(=O)NC2(CC2)C32CN(C)C2)cc1 [Example 225, 2-[3-(1-Amino-cyclopropyl)-1-methyl-azetidin-3-yl]-8-(4-methoxyphenyl)-4,5-dihydro-1H-pyrrolo[2,3-f]isoquinoline-3-carboxylic acid lactam] |
| 15 | Cn1c2c(c3c1-c1cc(-c4ccncc4)ncc1CC3)C(=O)NC1(CNC1)C2 [Example 152, 2-(3-Amino-azetidin-3-ylmethyl)-8-(pyridin-4-yl)-1-methyl-4,5-dihydro-1H-pyrrolo[2,3-f]isoquinoline-3-carboxylic acid lactam hydrochloride] |
| 15 | Cn1c2c(c3c1-c1cc(-c4ccc5c(c4)OCCO5)ncc1CC3)C(=O)NC1(CNC1)C2 [Example 148, 2-(3-Amino-azetidin-3-ylmethyl)-8-(2,3-dihydro-benzo[1,4]dioxin-6-yl)-1-methyl-4,5-dihydro-1H-pyrrolo[2,3-f]isoquinoline-3-carboxylic acid lactam hydrochloride] |
| 80 | O=C1NC2(CC2)Cc2[nH]c3c(c21)CCc1cnc(-c2ccc(CCCN4CC(O)C4)cc2)cc1-3 [Example 248, 2-(1-Amino-cyclopropylmethyl)-8-{4-[3-(3-hydroxy-azetidin-1-yl)-propyl]-phenyl}-4,5-dihydro-1H-pyrrolo[2,3-f]isoquinoline-3-carboxylic acid lactam] |
